{"source": "patent US20080318938A1", "about": "“METHODS FOR TREATING ABERRANT CELL PROLIFERATION DISORDERS” (priority 2007, published 2008)", "assay_in_all_cases": "Inhibition of cell proliferation (MTT)", "format_in_all_cases": "cell-based", "key": {"[1]": {"tested_on": "Jurkat", "conditions": "Homo sapiens, Leukemia, 48 hours", "protocol": "(§1) Inhibition of cell proliferation is determined in human tumor cell lines. Innoculation density and doubling times for specific cell lines are listed at World Wide Web URL “dtp.nci.nih.gov/docs/misc/common_files/cell_list.html.”\n(§2) • 1. Plate adherent cells the day before starting the experiment in 180 μl growth media (see list hereafter). • 2. Day of experiment, count and plate suspension cells in 180 μl growth media (see list on next page). • 3. Make 10× Compound, vehicle, and chemotherapeutic cocktail • a. Compound (1× to 10×) • i. 10 μM Compound to 100 μM • ii. 3 μM Compound to 30 μM • iii. 1 μM Compound to 10 μM • iv. 0.3 μM Compound to 3 μM • v. 0.1 μM Compound to 1 μM • b. Vehicle • i. PBS, equivalent to the volume used for 10 μM Compound (1× is ˜0.06% PBS) • c. Chemotherapeutic cocktail (1× to 10×): • i. 1 μM Velcade to 10 μM • ii. 100 μM Etoposide to 1 mM • iii. 20 μM Taxol to 200 μM • 4. Add 20 μl of the 10× compound/vehicle/chemotherapeutic cocktail to cells. • 5. Incubate at 37° C., 5% CO2 for 48 hours. • 6. Aspirate media. For suspension cells, spin plate at 1500 RPM for 10 minutes. Use a multichannel pipettor to slowly remove media. • 7. Add 200 μl of Thiazolyl Blue Tetrazolium Bromide (MTT) to each well: 0.863 mg/ml MTT in growth media.\n(§3) Proliferation of several cancer cells was inhibited by compound TA1-1B (which is a particular mixture of the isomers represented by TA1-1A), as shown in the following table (Table 1). The value EC50 is the amount of Compound TA1-1B that results in 50% inhibition of proliferation of the indicated cell type."}, "[2]": {"tested_on": "Jgamma-1", "conditions": "Homo sapiens, J.gamma1; Jgamma-1, Leukemia; 48 hours", "protocol": "as §1, §2, §3"}, "[3]": {"tested_on": "Kasumi-1", "conditions": "Homo sapiens; Kasumi-1, Leukemia; 48 hours", "protocol": "as §1, §2, §3"}, "[4]": {"tested_on": "COLO 205", "conditions": "Homo sapiens; COLO 205, Colon; 48 hours", "protocol": "as §1, §2, §3"}, "[5]": {"tested_on": "TF-1", "conditions": "Homo sapiens; TF-1, Leukemia; 48 hours", "protocol": "as §1, §2, §3"}, "[6]": {"tested_on": "EKVX", "conditions": "Homo sapiens, Non Small Cell Lung, 48 hours", "protocol": "as §1, §2, §3"}, "[7]": {"tested_on": "NK92MI", "conditions": "Homo sapiens, Lymphoma, 48 hours", "protocol": "as §1, §2, §3"}, "[8]": {"tested_on": "IGROV1", "conditions": "Homo sapiens, IGROV-1; IGROV1, Ovarian; 48 hours", "protocol": "as §1, §2, §3"}, "[9]": {"tested_on": "M14", "conditions": "Homo sapiens; M14, Melanoma; 48 hours", "protocol": "as §1, §2, §3"}, "[10]": {"tested_on": "JM1", "conditions": "Homo sapiens; JM1, Lymphoma; 48 hours", "protocol": "as §1, §2, §3"}, "[11]": {"tested_on": "NC37", "conditions": "Homo sapiens, NC-37; NC37, Lymphoma; 48 hours", "protocol": "as §1, §2, §3"}, "[12]": {"tested_on": "NCI-H322M", "conditions": "Homo sapiens, Non Small Cell Lung, 48 hours", "protocol": "as §1, §2, §3"}, "[13]": {"tested_on": "MC116", "conditions": "Homo sapiens; MC116, Lymphoma; 48 hours", "protocol": "as §1, §2, §3"}, "[14]": {"tested_on": "MDA-MB-435", "conditions": "Homo sapiens; MDA-MB-435, Breast; 48 hours", "protocol": "as §1, §2, §3"}, "[15]": {"tested_on": "P116", "conditions": "Homo sapiens; P116, Leukemia; 48 hours", "protocol": "as §1, §2, §3"}, "[16]": {"tested_on": "H9", "conditions": "Homo sapiens; H9, Lymphoma; 48 hours", "protocol": "as §1, §2, §3"}, "[17]": {"tested_on": "OVCAR-4", "conditions": "Homo sapiens; OVCAR-4, Ovarian; 48 hours", "protocol": "as §1, §2, §3"}, "[18]": {"tested_on": "RPMI-8226", "conditions": "Homo sapiens; RPMI-8226, Leukemia; 48 hours", "protocol": "as §1, §2, §3"}, "[19]": {"tested_on": "UO-31", "conditions": "Homo sapiens; UO-31, Renal; 48 hours", "protocol": "as §1, §2, §3"}, "[20]": {"tested_on": "HT", "conditions": "Homo sapiens, Lymphoma, 48 hours", "protocol": "as §1, §2, §3"}, "[21]": {"tested_on": "SUDHL4", "conditions": "Homo sapiens, SU-DHL-4; SUDHL4, Lymphoma; 48 hours", "protocol": "as §1, §2, §3"}, "[22]": {"tested_on": "RS4-11", "conditions": "Homo sapiens; RS4-11, Leukemia; 48 hours", "protocol": "as §1, §2, §3"}, "[23]": {"tested_on": "SN12C", "conditions": "Homo sapiens, Renal, 48 hours", "protocol": "as §1, §2, §3"}, "[24]": {"tested_on": "A3", "conditions": "Homo sapiens; A3, Leukemia; 48 hours", "protocol": "as §1, §2, §3"}, "[25]": {"tested_on": "MCF7", "conditions": "Homo sapiens; MCF7, Breast; 48 hours", "protocol": "as §1, §2, §3"}, "[26]": {"tested_on": "Namalwa", "conditions": "Homo sapiens, Lymphoma, 48 hours", "protocol": "as §1, §2, §3"}, "[27]": {"tested_on": "J45-01", "conditions": "Homo sapiens; J45-01, Leukemia; 48 hours", "protocol": "as §1, §2, §3"}, "[28]": {"tested_on": "HuT102", "conditions": "Homo sapiens, HuT-102; HuT102, Lymphoma; 48 hours", "protocol": "as §1, §2, §3"}, "[29]": {"tested_on": "HCC-2998", "conditions": "Homo sapiens; HCC-2998, Colon; 48 hours", "protocol": "as §1, §2, §3"}, "[30]": {"tested_on": "U266B1", "conditions": "Homo sapiens; U266B1, Lymphoma; 48 hours", "protocol": "as §1, §2, §3"}, "[31]": {"tested_on": "U251", "conditions": "Homo sapiens, U-251; U251, CNS; 48 hours", "protocol": "as §1, §2, §3"}, "[32]": {"tested_on": "PC-3", "conditions": "Homo sapiens; PC-3, Prostate; 48 hours", "protocol": "as §1, §2, §3"}}}
{"smiles": "CN1CCC[C@H]1CCNC(=O)c1cn2c3c(c(N4CCC(c5cnccn5)C4)c(F)cc3c1=O)Oc1cc3ccccc3cc1-2", "note": "(some centres unmarked) [TA1-1B]", "values": [{"measurement": "EC50", "setting": "[1]", "result": 1.21, "unit": "µM"}, {"measurement": "EC50", "setting": "[2]", "result": 1.72, "unit": "µM"}, {"measurement": "EC50", "setting": "[3]", "result": 2.05, "unit": "µM"}, {"measurement": "EC50", "setting": "[4]", "result": 0.707, "unit": "µM"}, {"measurement": "EC50", "setting": "[5]", "result": 5.46, "unit": "µM"}, {"measurement": "EC50", "setting": "[6]", "result": 5.67, "unit": "µM"}, {"measurement": "EC50", "setting": "[7]", "result": 1.3, "unit": "µM"}, {"measurement": "EC50", "setting": "[8]", "result": 4.44, "unit": "µM"}, {"measurement": "EC50", "setting": "[9]", "result": 4.98, "unit": "µM"}, {"measurement": "EC50", "setting": "[10]", "result": 2.23, "unit": "µM"}, {"measurement": "EC50", "setting": "[11]", "result": 1.26, "unit": "µM"}, {"measurement": "EC50", "setting": "[12]", "result": 4.28, "unit": "µM"}, {"measurement": "EC50", "setting": "[13]", "result": 3.87, "unit": "µM"}, {"measurement": "EC50", "setting": "[14]", "result": 3.63, "unit": "µM"}, {"measurement": "EC50", "setting": "[15]", "result": 1.23, "unit": "µM"}, {"measurement": "EC50", "setting": "[16]", "result": 2.24, "unit": "µM"}, {"measurement": "EC50", "setting": "[17]", "result": 2.96, "unit": "µM"}, {"measurement": "EC50", "setting": "[18]", "result": 1.37, "unit": "µM"}, {"measurement": "EC50", "setting": "[19]", "result": 2.39, "unit": "µM"}, {"measurement": "EC50", "setting": "[20]", "result": 2.44, "unit": "µM"}, {"measurement": "EC50", "setting": "[21]", "result": 1.34, "unit": "µM"}, {"measurement": "EC50", "setting": "[22]", "result": 0.55, "unit": "µM"}, {"measurement": "EC50", "setting": "[23]", "result": 4.16, "unit": "µM"}, {"measurement": "EC50", "setting": "[24]", "result": 3.63, "unit": "µM"}, {"measurement": "EC50", "setting": "[25]", "result": 3.46, "unit": "µM"}, {"measurement": "EC50", "setting": "[26]", "result": 1.42, "unit": "µM"}, {"measurement": "EC50", "setting": "[27]", "result": 1.89, "unit": "µM"}, {"measurement": "EC50", "setting": "[28]", "result": 1.05, "unit": "µM"}, {"measurement": "EC50", "setting": "[29]", "result": 2.54, "unit": "µM"}, {"measurement": "EC50", "setting": "[30]", "result": 1.62, "unit": "µM"}, {"measurement": "EC50", "setting": "[31]", "result": 2.68, "unit": "µM"}, {"measurement": "EC50", "setting": "[32]", "result": 4.96, "unit": "µM"}]}
